Paper PMC12603070, “A high-throughput screening approach to discover potential colorectal cancer chemotherapeutics: repurposing drugs to identify novel disruptors of 14-3-3 proteins” (Cell Death & Disease, 2025)
Read-outs that look alike come from different tables or passages of the source.

How the values were obtained:
[1] = biological target: T1, 14-3-3ζ:BAD-112-136F interactions (Homo sapiens, UniProt P63104); test: BRET sensor screen for disruption of 14-3-3ζ-Rluc8:BAD-112-136F-mCitrine in living NIH-3T3 cells; assay type: cell-based, murine; parameters: inhibition: dose or concentration left out as unconfirmed; conditions: for inhibition at 20 µM / inhibition: NIH3T3, 3 h; for inhibition: NIH-3T3 cells
T1 construct: expressed in transfected cells; host or cells: NIH-3T3 fibroblasts, bi-directional pBI-CMV1 plasmid
T1 sequence (P63104 1-245): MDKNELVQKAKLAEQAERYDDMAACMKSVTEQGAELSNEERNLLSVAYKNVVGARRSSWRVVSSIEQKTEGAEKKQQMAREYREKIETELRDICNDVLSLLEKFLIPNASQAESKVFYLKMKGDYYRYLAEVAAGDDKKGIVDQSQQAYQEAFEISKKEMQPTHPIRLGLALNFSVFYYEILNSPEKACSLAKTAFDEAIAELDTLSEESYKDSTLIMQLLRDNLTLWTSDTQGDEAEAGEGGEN
How it was run: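 NIH-3T3 cells were transfected with the BRET sensor two days beforehand, then replated on poly-L-ornithine-coated plates and grown 24 h at 37 °C. Medium was then replaced with Krebs buffer (pH 7.4). Z′-score was calculated to judge HTS robustness.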

Caco-2 cells = assay type: cell-based
Description: (§1) A high-content imaging system (PerkinElmer; Operetta CLS), was used to quantify cell death and apoptosis by calculating the number of propidium iodide-positive cells relative to Hoechst-positive cells, and the number of Annexin V-positive cells relative to Hoechst-positive cells, respectively.

NIH-3T3 cells = test: Hoechst/propidium iodide cell death assay in NIH-3T3; assay type: cell-based; conditions: for cytotoxicity at 20 µM: Mus musculus, NIH3T3, 24 h, 24 h, read-out: Percentage of cell death % 24h NIH3t3
Description: as §1

HT-29 cells = test: Hoechst/propidium iodide cell death assay in HT-29; assay type: cell-based, human; conditions: for %Cell death HT-29: time not given; for cytotoxicity at 20 µM: Homo sapiens
Description: as §1

His-14-3-3ζ = biological target: T2, His-14-3-3ζ (Homo sapiens, UniProt P63104); test: Surface plasmon resonance (SPR) on immobilized His-14-3-3ζ; assay type: binding; conditions: for kd: SPR dissociation rate; for BI ([Signal (RU)]): SPR fit parameter, per curve; for kon: pH 7.8, SPR association rate, read-out: ka
T2 construct: made in house; host or cells: Escherichia coli BL21 LOBSTR-RIL
T2 sequence (P63104 1-245): T1 sequence (P63104 1-245)
Method: The published protocol of Higuchi & Ottmann as followed with modifications to express 14-3-3ζ [44]. Escherichia coli BL21 LOBSTR-RIL cells were transformed with a plasmid encoding His-14-3-3ζ. The transformed cells were grown in TB medium containing appropriate antibiotic at 37 °C with shaking at 200 rpm until the culture reached an optical density of 0.6–0.8 at 600 nm (OD600). Protein expression was induced by the addition of isopropyl β-D-1-thiogalactopyranoside to a final concentration of 0.4 mM. Subsequently, the temperature was decreased to 16 °C and the culture incubated for another 16 h. Cells were harvested by centrifugation at 7000 × g for 20 min at 21 °C. The supernatant was discarded, and the cell pellet containing 14-3-3ζ was mixed and resuspended in lysis buffer (50 mM Tris, pH 7.80), 500 mM NaCl, 5 mM imidazole, 5% glycerol, 1 mM PMSF & 1 mM Benzamidine. Cells were lysed by sonication on ice using a probe sonicator (20 cycles of 10 s on, 20 s off, amplitude 70%). The lysate was centrifuged at 30,000 × g for 30 min at 4 °C to remove cell debris. The supernatant was collected for further purification. The 14-3-3ζ was isolated from the lysate by affinity chromatography (Ni-NTA beads, Qiagen). For further purification, the eluant was subjected to size exclusion chromatography using a Superdex 75 gel filtration column (HiLoad 16/600, GE Healthcare), pre-equilibrated with SEC buffer (20 mM Tris, pH 7.5, 150 mM NaCl, 1 mM TCEP). The protein solution was concentrated by ultrafiltration, flash frozen, and stored at −80 °C.
The general protocol for evaluating 14-3-3ζ was adapted from Hartman et al. and modified for our instrument and sensors. The SPR experiments were performed using a Open surface plasmon resonance instrument (OpenSPR^TM, Nicoya, Kitchener-Waterloo, Canada), and high sensitivity-nitrilotriacetic acid (HS-NTA) sensors. The sensor chip surface was first activated with 40 mM of NiCl2 at a flow rate of 20 μL/min using 20 mM HEPES pH 7.8, 150 mM NaCl and 1% DMSO as the running buffer. All running buffers were filtered and degassed prior to use. 100 μg/mL His-14-3-3ζ protein in 20 mM HEPES pH 7.8, 150 mM NaCl and 1% DMSO was injected at 8 μL/min flow rate for 800 s contact time and immobilized until the instrument registered 2900–3500 RU (activation and protein immobalization spectrograms are provided as Supplementary Fig. 10). Drugs were dissolved in DMSO and were diluted with 20 mM HEPES pH 7.8, 150 mM NaCl (final DMSO concentration of 1% v/v) and were injected at a flow rate of 50 μL/min. Single-cycle kinetics were applied for KD evaluation and binding affinity using TraceDrawer v.1.8.1 (Ridgeview Instruments AB).

[2] = system: HT-29 and Caco-2 CRC cells; test: Cell death in CRC cells, statements covering both HT-29 and Caco-2 (screen at 20 µM, dose-response); assay type: cell-based, human; conditions: dose-response 2.5-20 µM in HT-29 and Caco-2
Method: Cells were plated at a density of 20,000 cells/well into 96-well plates (PerkinElmer; #6055302) and incubated overnight at 37 °C before the addition of the drugs. One hour prior to imaging, Hoechst 33342 (Invitrogen, #H3570) and propidium iodide (Invitrogen; #P3566) were added to the wells to achieve final concentrations of 50 ng/ml and 0.5 μg/ml, respectively. To measure apoptosis, AlexaFluor 488-conjugated Annexin V (ThermoFisher, Massachusetts, USA; #A13201) was also added at a dilution of 1:400 from the commercial stock. A high-content imaging system (PerkinElmer; Operetta CLS), was used to quantify cell death and apoptosis by calculating the number of propidium iodide-positive cells relative to Hoechst-positive cells, and the number of Annexin V-positive cells relative to Hoechst-positive cells, respectively. To assess caspase-dependent apoptosis, cells were pre-treated for 30 min with the caspase inhibitor Z-VAD-FMK (BD Biosciences, New Jersey, USA; #550377; 20 μM) or the negative control Z-FA-FMK (BD Biosciences; #550411; 20 μM) prior to the incubation of drugs.

[3] = HT-29, 24 h, 20 µM, 24 h, read-out: Percentage of cell death % 24h HT-29
[4] = HT-29, 48 h, HT-29, 48h, 20 μM, read-out: Percentage of cell death % 48h, HT-29
[5] = SPR fit, value repeated per curve
[6] = SPR, immobilized His-14-3-3ζ, single-cycle kinetics, 1% DMSO
[7] = hits from the primary screen, read-out: BRET reduction on NIH-3T3
[8] = NIH-3T3 expressing BRET sensor, 20 µM, 3 h, read-out: BRET reduction on NIH-3T3

Row | Bmax ([Signal (RU)]) (His-14-3-3ζ; SPR curve at 0.0009 mM ligand) | Bmax ([Signal (RU)]) (His-14-3-3ζ; SPR curve at 0.005 mM ligand) | Bmax ([Signal (RU)]) (His-14-3-3ζ; SPR curve at 0.02 mM ligand) | kd (His-14-3-3ζ; value repeated per curve) | BI ([Signal (RU)]) (His-14-3-3ζ) | Kd (His-14-3-3ζ; [5]) | Kd (His-14-3-3ζ; [6]) | kon (His-14-3-3ζ; value repeated per curve) | inhibition [1, 7] | inhibition at 20 µM [1, 8] | Bmax ([Signal (RU)]) (His-14-3-3ζ; SPR curve at 0.01 mM ligand) | Bmax ([Signal (RU)]) (His-14-3-3ζ; SPR curve at 0.007 mM ligand) | SMILES | %Cell death Caco-2 (Caco-2 cells; Caco-2) | cytotoxicity at 20 µM (NIH-3T3 cells) | Percentage of cell death % 48h, NIH3T3 (NIH-3T3 cells) | %Cell death HT-29 (HT-29 cells; HT-29) | cytotoxicity at 20 µM (HT-29 cells; [3]) | cytotoxicity at 20 µM (HT-29 cells; [4]) | Lowest concentration that significantly induced cell death [2] | also measured
1 | 2.87 RU | 227.4 RU | 342.32 RU | 0.00856 s⁻¹ | 0.1 RU | 10600 nM | 10600 nM | 807 M⁻¹ s⁻¹ | – | – | – | – | CCCCCCCCc1ccc(CCC(N)(CO)CO)cc1 [Fingolimod (FTY720), Fingolimod] | 67.9% | 89.8% | 86.4299% | 69.1% | 13.5% | 69.1% | – | inhibition at 20 µM ([1]; read-out: BRET reduction on NIH-3T3, NIH-3T3 cells, hits from the primary screen): 34.9%; inhibition at 20 µM ([1]; read-out: BRET reduction on NIH-3T3, NIH-3T3 expressing BRET sensor, 20 µM, 3 h): 34.9%; Effect on BRET, dose-response ([1]; NIH-3T3 expressing BRET sensor, 3 h post-treatment): significantly reduced BRET in a dose-dependent manner
2 | 55.11 RU | – | 311.25 RU | 0.0109 s⁻¹ | 0.1 RU | 858 nM | 890 nM | 12700 M⁻¹ s⁻¹ | 40.8% | 40.8% | 270.8 RU | – | O=C(NC1CCN(CCCCC2(C(=O)NCC(F)(F)F)c3ccccc3-c3ccccc32)CC1)c1ccccc1-c1ccc(C(F)(F)F)cc1 [Lomitapide] | – | 90.2% | 77.6841% | 72.9% | 29.5% | 72.9% | 5 µM | Percentage of cell death % 24h CACO-2 (Caco-2 cells; 20 µM, 24 h): 66.0871%; Percentage of cell death % 48h, Caco-2 (Caco-2 cells; Caco-2, 48h, 20 μM): 81.7295%; %Cell death Caco-2 (Caco-2 cells; Caco-2, time not given, text says 48 h): 81.7%; Effect of Z-VAD-FMK on propidium iodide incorporation (Caco-2 cells; lomitapide-treated Caco-2 cells, 10 μM, 48 h): no effect; Bmax ([Signal (RU)]) (His-14-3-3ζ; SPR curve at 0.003 mM ligand): 159.43 RU; Kd (His-14-3-3ζ; SPR, immobilized 14-3-3ζ): 900 nM
3 | 99.25 RU | 72.64 RU | – | 0.00974 s⁻¹ | 0.1 RU | 1350 nM | 1350 nM | 7240 M⁻¹ s⁻¹ | 53.8% | 53.8% | 100.4 RU | 80.65 RU | OC1(c2ccc(Cl)c(C(F)(F)F)c2)CCN(CCCC(c2ccc(F)cc2)c2ccc(F)cc2)CC1 [Penfluridol] | 90.0% | 85.7% | 79.942% | 92.2% | 77.5% | 92.2% | 5 µM | –
4 | 166.72 RU | 144.99 RU | – | 0.0185 s⁻¹ | 0.1 RU | 2960 nM | 2960 nM | 6260 M⁻¹ s⁻¹ | 45.6% | 45.6% | 179.00 RU | 177.73 RU | CC(C)(C)c1ccc(C(O)CCCN2CCC(C(O)(c3ccccc3)c3ccccc3)CC2)cc1 (stereo not drawn) [Terfenadine] | 79.7% | 85.2% | 73.0215% | 89.6% | 81.9% | 89.6% | 5 µM | –
